The values that follow come from patent publication US20240208932A1, “ARYLAMINO DERIVATIVE ESTROGEN RECEPTOR MODULATOR AND USE THEREOF” (XIZANG HAISCO PHARMACEUTICAL CO., LTD., priority 2021, published 2024).

A short description of data set [1]: Pharmacokinetic test in rats. Type of data set: in vivo. Conditions: male, SD, rat, plasma; for Vd: read-out: Vdss. As to the method:
3. Pharmacokinetic Test in Rats
3.1 Experimental animals: male SD rats, about 220 g, 6-8 weeks old, 6 rats/compound, purchased from Chengdu Ddossy Experimental Animals Co., Ltd.
3.2 Experimental design: on the day of the test, 24 SD rats were randomly grouped according to their body weight; the animals were fasted with water available for 12 to 14 h one day before the administration, and were fed 4 h after the administration;
(DMA: dimethylacetamide; Solutol: Polyethylene glycol-15-hydroxystearate; Saline: Normal saline; MC: methylcellulose)
Before and after the administration, 0.15 ml of blood was taken from the orbit of the animals under isoflurane anesthesia and placed in an EDTAK2 centrifuge tube. The blood was centrifuged at 5000 rpm and 4° C. for 10 min to collect plasma. The blood collection time points for the intravenous administration group and intragastric administration group were: 0, 5 min, 15 min, 30 min, 1 h, 2 h, 4 h, 6 h, 8 h, and 24 h. Before analysis and detection, all samples were stored at −80° C., and a quantitative analysis of samples was performed using LC-MS/MS.

Data set [2] can be described thus: Pharmacokinetic test in mice. It is filed as in vivo. Conditions: male, ICR, mouse, plasma; for Vd: read-out: Vdss. As to the method:
4. Pharmacokinetic Test in Mice
4.1 Experimental animals: male ICR mice, 20-25 g, 18 mice/compound. purchased from Chengdu Ddossy Experimental Animals Co., Ltd.
4.2 Experimental design: on the day of the test, 72 ICR mice were randomly grouped according to their body weights. the animals were fasted with water available for 12 to 14 h one day before the administration, and were fed 4 h after the administration;
Before and after the administration, 0.06 mL of blood was taken from the orbit of the animals under isoflurane anesthesia and placed in an EDTAK2 centrifuge tube. The blood was centrifuged at 5000 rpm and 4° C. for 10 min to collect plasma. The blood collection time points for the intravenous group and intragastric administration […] group were: 0 min, 5 min, 15 min, 30 min, 1 h, 2 h, 4 h, 6 h, 8 h, and 24 h. Before analysis and detection, all samples were stored at −80° C., and a quantitative analysis of samples was performed using LC-MS/MS.

In data set [3] the target is hERG potassium ion channel (Homo sapiens (Human), UniProt Q12809). The data set is described as follows: Test for hERG potassium ion channel (manual patch-clamp, CHO cells). To be noted: for IC50: CHO cells stably expressing hERG, whole cell patch-clamp, read-out: IC50 on hERG potassium channel current; for inhibition at 40 µM: human, CHO cells stably expressing hERG potassium channel, hERG potassium channel current, read-out: Inhibition rate at the highest concentration tested. It is filed as cell-based. An excerpt: 5. Test for hERG Potassium Ion Channel
Test platform: electrophysiological manual patch-clamp system
Cell line: Chinese hamster ovary (CHO) cell lines stably expressing hERG potassium ion channel Test method: In CHO (Chinese Hamster Ovary) cells stably expressing hERG potassium channel, whole cell patch-clamp technique was used to record hERG potassium channel current at room temperature. The glass microelectrode was made of a glass electrode blank (BF150-86-10, Sutter) by a puller. The tip resistance after filling the liquid in the electrode was about 2-5 MΩ. The glass microelectrode can be connected to the patch-clamp amplifier by inserting the glass microelectrode into an amplifier probe. The clamping voltage and data recording were controlled and recorded by the pClamp 10 software through a computer. The sampling frequency was 10 kHz, and the filtering frequency was 2 kHz. After the whole cell records were obtained, the cells were clamped at −80 mV, and the step voltage that induced the hERG potassium current (I hERG) was depolarized from −80 mV to +20 mV for 2 s, then repolarized to −50 mV, and returned to −80 mV after 1 s. This voltage stimulation was given every 10 s, and the administration process was started after the hERG potassium current was confirmed to be stable (at least 1 minute). The compound was administered for at least 1 minute at each test concentration, and at least 2 cells ([…]) were tested at each concentration.
Data processing: Data analysis processing was carried out by using pClamp 10, GraphPad Prism 5 and Excel software. The inhibition degree of hERG potassium current (peak value of hERG tail current induced at −50 mV) at different compound concentrations was calculated by the following formula:
Inhibition %=[1−(I/Io)]×100% wherein, Inhibition % represents the percentage of inhibition of hERG potassium current by the compound, and I and Io represent the amplitude of hERG potassium current after and before dosing, respectively.
IC50 for the compound was calculated using GraphPad Prism 5 software by fitting according to the following equation:
Y=Bottom+(Top−Bottom)/(1+10^((LogIC50−X)*HillSlope)) wherein, X represents the Log value of the tested concentration of the test sample, Y represents the inhibition percentage at the corresponding concentration, and Bottom and Top represent the minimum and maximum inhibition percentage, respectively.
(In general: The hERG channel carries a current that helps repolarise heart muscle cells.)

Data set [4] has as its target CYP1A2 (Homo sapiens (Human), UniProt P05177). The data set is described as follows: CYP450 enzyme inhibition test, human liver microsomes. Type of data set: in vitro ADME. Conditions: incubation concentration 0-50/100 μM. As to the method:
(§1) 6. CYP450 Enzyme Inhibition Test
(§2) The purpose of this study was to evaluate the effect of the test compound on the activity of five isoenzymes (CYP1A2, CYP2C9, CYP2C19, CYP2D6 and CYP3A4) of human liver microsomal cytochrome P450 (CYP) by using an in vitro testing system. The specific probe substrates of CYP450 isoenzymes were incubated with human liver microsomes and test compounds of different concentrations, and reduced nicotinamide adenine dinucleotide phosphate (NADPH) was added to initiate the reaction. After the completion of the reaction, the sample was treated and liquid chromatography-tandem mass spectrometry (LC-MS/MS) was used to quantitatively detect metabolites produced by specific substrates, changes in CYP enzyme activity were determined, and IC50 value was calculated to evaluate the inhibitory potential of the test compound on each CYP enzyme subtype.

In data set [5] the target is CYP2C9 (Homo sapiens (Human), UniProt P11712). Described as above. Type of data set: in vitro ADME. Conditions: incubation concentration 0-50/100 μM. As to the method: as §1, §2
The target of data set [6] is CYP2D6 (Homo sapiens (Human), UniProt P10635). Described as above. Type of data set: in vitro ADME. To be noted: incubation concentration 0-50/100 μM. As to the method:
as §1, §2

Data set [7] concerns the target CYP3A4 (Homo sapiens (Human), UniProt P08684). The data set is described as above. Type of data set: in vitro ADME. To be noted: incubation concentration 0-50/100 μM, read-out: IC50 CYP3A-M. As to the method: as §1, §2

The structures appear in SMILES notation. Some results are limits rather than exact numbers.

Chain of CYP3A4 (P08684 whole entry): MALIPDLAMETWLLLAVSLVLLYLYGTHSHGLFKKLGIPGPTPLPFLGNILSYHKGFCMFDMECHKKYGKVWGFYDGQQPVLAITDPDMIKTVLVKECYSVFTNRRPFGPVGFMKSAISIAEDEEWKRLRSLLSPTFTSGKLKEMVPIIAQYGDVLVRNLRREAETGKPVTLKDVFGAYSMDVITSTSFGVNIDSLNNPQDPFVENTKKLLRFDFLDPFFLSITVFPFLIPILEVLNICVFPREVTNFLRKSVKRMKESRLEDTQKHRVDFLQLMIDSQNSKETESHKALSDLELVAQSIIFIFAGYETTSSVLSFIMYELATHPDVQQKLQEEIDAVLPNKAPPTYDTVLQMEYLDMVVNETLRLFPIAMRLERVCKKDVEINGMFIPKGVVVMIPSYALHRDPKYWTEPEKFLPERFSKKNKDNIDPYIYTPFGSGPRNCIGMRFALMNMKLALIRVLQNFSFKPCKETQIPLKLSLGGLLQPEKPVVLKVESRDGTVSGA
Chain of hERG potassium ion channel (Q12809 whole entry): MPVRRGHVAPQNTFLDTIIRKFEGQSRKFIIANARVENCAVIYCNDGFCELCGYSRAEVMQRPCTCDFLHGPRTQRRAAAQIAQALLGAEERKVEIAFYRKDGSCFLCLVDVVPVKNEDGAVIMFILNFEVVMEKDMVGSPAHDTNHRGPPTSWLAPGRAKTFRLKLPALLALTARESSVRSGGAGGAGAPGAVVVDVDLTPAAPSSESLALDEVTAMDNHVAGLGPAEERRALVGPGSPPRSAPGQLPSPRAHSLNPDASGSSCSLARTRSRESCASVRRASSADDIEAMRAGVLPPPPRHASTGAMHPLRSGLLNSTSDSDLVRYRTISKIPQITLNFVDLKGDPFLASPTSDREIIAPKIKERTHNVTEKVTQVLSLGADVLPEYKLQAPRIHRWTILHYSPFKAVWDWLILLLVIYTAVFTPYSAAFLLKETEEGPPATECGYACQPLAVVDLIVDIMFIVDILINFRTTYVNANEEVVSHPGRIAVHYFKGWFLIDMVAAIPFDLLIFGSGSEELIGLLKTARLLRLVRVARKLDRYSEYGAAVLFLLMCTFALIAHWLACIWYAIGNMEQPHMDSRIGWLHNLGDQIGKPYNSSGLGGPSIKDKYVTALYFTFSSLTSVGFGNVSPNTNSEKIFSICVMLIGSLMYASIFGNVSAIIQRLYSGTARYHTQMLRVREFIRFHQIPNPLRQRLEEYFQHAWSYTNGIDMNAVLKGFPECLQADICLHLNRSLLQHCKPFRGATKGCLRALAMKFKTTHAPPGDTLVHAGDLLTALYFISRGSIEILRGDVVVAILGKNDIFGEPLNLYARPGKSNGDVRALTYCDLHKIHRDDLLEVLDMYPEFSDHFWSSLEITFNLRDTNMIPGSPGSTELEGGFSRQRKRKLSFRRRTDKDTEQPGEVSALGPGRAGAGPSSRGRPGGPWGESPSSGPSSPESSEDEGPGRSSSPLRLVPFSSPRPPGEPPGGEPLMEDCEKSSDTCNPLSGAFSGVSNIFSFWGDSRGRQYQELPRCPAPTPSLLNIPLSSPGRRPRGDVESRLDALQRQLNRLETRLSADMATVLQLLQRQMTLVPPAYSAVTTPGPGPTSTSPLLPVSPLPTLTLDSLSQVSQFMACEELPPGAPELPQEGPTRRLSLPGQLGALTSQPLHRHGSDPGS
Chain of CYP2D6 (P10635 whole entry): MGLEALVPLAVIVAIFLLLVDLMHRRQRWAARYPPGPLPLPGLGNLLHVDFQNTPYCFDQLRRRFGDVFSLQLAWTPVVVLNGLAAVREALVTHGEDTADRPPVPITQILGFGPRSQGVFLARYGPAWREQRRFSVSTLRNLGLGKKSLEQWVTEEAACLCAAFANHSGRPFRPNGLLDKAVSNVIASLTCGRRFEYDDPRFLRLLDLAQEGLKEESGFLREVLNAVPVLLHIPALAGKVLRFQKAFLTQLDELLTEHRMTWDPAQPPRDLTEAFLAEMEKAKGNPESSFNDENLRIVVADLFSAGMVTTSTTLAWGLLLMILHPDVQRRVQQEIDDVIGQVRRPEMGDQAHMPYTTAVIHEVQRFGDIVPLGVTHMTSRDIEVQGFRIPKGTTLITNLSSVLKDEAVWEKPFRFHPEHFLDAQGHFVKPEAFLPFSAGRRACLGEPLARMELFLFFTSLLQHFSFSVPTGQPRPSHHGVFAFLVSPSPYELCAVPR
Chain of CYP2C9 (P11712 whole entry): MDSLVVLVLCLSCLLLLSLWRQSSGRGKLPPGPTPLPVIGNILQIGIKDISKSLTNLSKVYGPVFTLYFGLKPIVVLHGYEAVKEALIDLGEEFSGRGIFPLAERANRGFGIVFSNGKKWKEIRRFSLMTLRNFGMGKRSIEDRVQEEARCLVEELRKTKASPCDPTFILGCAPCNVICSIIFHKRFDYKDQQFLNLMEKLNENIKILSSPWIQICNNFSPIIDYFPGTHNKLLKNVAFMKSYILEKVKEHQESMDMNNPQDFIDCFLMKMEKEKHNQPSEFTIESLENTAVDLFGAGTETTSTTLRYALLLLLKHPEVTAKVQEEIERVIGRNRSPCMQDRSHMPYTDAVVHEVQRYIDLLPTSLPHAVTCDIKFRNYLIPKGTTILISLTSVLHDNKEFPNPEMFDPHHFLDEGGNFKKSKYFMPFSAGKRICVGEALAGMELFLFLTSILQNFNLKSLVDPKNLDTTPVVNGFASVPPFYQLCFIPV
Chain of CYP1A2 (P05177 whole entry): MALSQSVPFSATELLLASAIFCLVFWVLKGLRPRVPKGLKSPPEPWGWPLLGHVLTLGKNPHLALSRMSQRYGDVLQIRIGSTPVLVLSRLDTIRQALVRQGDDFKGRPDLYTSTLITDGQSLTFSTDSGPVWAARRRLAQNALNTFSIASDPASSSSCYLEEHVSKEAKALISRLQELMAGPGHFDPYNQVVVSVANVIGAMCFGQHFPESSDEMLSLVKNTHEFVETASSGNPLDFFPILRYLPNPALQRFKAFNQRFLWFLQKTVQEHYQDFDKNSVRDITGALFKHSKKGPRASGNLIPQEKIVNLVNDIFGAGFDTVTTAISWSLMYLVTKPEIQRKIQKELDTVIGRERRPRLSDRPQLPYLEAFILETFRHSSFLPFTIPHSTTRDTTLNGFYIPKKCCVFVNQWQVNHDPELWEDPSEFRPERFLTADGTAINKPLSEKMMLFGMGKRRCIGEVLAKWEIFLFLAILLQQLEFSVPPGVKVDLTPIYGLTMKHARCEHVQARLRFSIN

In general, AUC(0-t) refers to the area under the concentration-time curve up to a stated or last time point. A higher AUC(0-t) goes with more exposure. One may read the clearance as a measure of how efficiently the substance is removed, as volume per time. Read a low clearance as inefficient removal. A word on the bioavailability: it is the share of a dose that reaches the circulation, judged against a reference dose that is usually intravenous. For orientation: IC50 means the point on the concentration scale where inhibition reaches its midpoint. On to `C[C@@H]1Cc2c([nH]c3ccc(F)cc23)[C@@H](c2c(F)cc(N[C@H]3CCN(CCCF)C3)cc2F)N1CC(F)(F)F` [Compound 18, (S)—N-(3,5-difluoro-4-((1R,3R)-6-fluoro-3-methyl-2-(2,2,2-trifluoroethyl)-2,3,4,9-tetrahydro-1H-pyrido[3,4-b]indol-1-yl)phenyl)-1-(3-fluoropropyl)pyrrolidin-3-amine], for which the area under the curve AUC(0-t) is 2070 ± 294 ng·h/mL in data set [1] (iv, i.v. (2.5 mg/kg)); 4560 ± 1040 ng·h/mL in data set [1] (po, i.g. (10 mg/kg)); 3810 ng·h/mL in data set [2] (iv, i.v. (5 mg/kg)); 5650 ng·h/mL in data set [2] (po, i.g. (10 mg/kg)). Moreover, the clearance in data set [1] (iv, i.v. (2.5 mg/kg)) is 16.9 ± 4 mL/min/kg; in data set [2] (iv, i.v. (5 mg/kg)), 15 mL/min/kg. The Vd in data set [1] (iv, i.v. (2.5 mg/kg)) turned out to be 12.2 ± 1.5 L/kg; in data set [2] (iv, i.v. (5 mg/kg)), 18.2 L/kg. Further, the bioavailability came to 55 ± 13% in data set [1] (po, i.g. (10 mg/kg)) and 74.3% in data set [2] (po, i.g. (10 mg/kg)). In addition, the IC50 is 2.82 µM in data set [3]; more than 100 µM in data set [4]; 20 µM in data set [5]; 34.1 µM in data set [6]; 15.7 µM in data set [7]. The inhibition at 40 µM in data set [3] came out at 100 ± 1.79%.

As to `C[C@@H]1Cc2c([nH]c3cc(F)ccc23)[C@@H](c2c(F)cc(N[C@H]3CCN(CCCF)C3)cc2F)N1CC(F)(F)F` [Compound 32, (S)—N-(3,5-difluoro-4-((1R,3R)-7-fluoro-3-methyl-2-(2,2,2-trifluoroethyl)-2,3,4,9-tetrahydro-1H-pyrido[3,4-b]indol-1-yl)phenyl)-1-(3-fluoropropyl)pyrrolidin-3-amine], the AUC(0-t) is 853 ± 48 ng·h/mL in data set [1] (iv, i.v. (2.5 mg/kg)); 1970 ± 469 ng·h/mL in data set [1] (po, i.g. (10 mg/kg)); 3360 ng·h/mL in data set [2] (iv, i.v. (5 mg/kg)); 4410 ng·h/mL in data set [2] (po, i.g. (10 mg/kg)). In addition, the clearance was determined as 39.2 ± 2.8 mL/min/kg in data set [1] (iv, i.v. (2.5 mg/kg)) and 16.3 mL/min/kg in data set [2] (iv, i.v. (5 mg/kg)). Moreover, the Vd turned out to be 31.4 ± 5.9 L/kg in data set [1] (iv, i.v. (2.5 mg/kg)) and 21.6 L/kg in data set [2] (iv, i.v. (5 mg/kg)). For the same molecule, the bioavailability in data set [1] (po, i.g. (10 mg/kg)) came to 57.6 ± 14%; in data set [2] (po, i.g. (10 mg/kg)), 65.6%. Also, the 50% inhibitory concentration (IC50) is 4.14 µM in data set [3]; more than 100 µM in data set [4]; 19.5 µM in data set [5]; 23.4 µM in data set [6]; 18.9 µM in data set [7]. For the same molecule, the inhibition at 40 µM in data set [3] was 100.2 ± 0.74%.

As to `C#Cc1ccc2c3c([nH]c2c1)[C@@H](c1c(F)cc(N[C@H]2CCN(CCCF)C2)cc1F)N(CC(F)(F)F)[C@H](C)C3` [Compound 43, (S)—N-(4-((1R,3R)-7-ethynyl-3-methyl-2-(2,2,2-trifluoroethyl)-2,3,4,9-tetrahydro-1H-pyrido[3,4-b]indol-1-yl)-3,5-difluorophenyl)-1-(3-fluoropropyl)pyrrolidin-3-amine], the AUC(0-t) in data set [1] (iv, i.v. (2.5 mg/kg)) worked out at 1570 ± 143 ng·h/mL; in data set [1] (po, i.g. (10 mg/kg)), 3200 ± 129 ng·h/mL; in data set [2] (iv, i.v. (5 mg/kg)), 10200 ng·h/mL; in data set [2] (po, i.g. (10 mg/kg)) it was 10200 ng·h/mL. The clearance in data set [1] (iv, i.v. (2.5 mg/kg)) stood at 20.8 ± 2 mL/min/kg; in data set [2] (iv, i.v. (5 mg/kg)), 8.21 mL/min/kg. Moreover, the Vd in data set [1] (iv, i.v. (2.5 mg/kg)) came out at 18.1 ± 2.1 L/kg; in data set [2] (iv, i.v. (5 mg/kg)), 16.6 L/kg. Also, the bioavailability in data set [1] (po, i.g. (10 mg/kg)) was found to be 51 ± 2.1%; in data set [2] (po, i.g. (10 mg/kg)) it was 50.2%. The half-inhibitory concentration (IC50) in data set [3] was 12.3 µM; in data set [4] it was 41.6 µM; in data set [5], more than 42.8 µM; in data set [6] it was 21.5 µM; in data set [7], more than 12.7 µM. Further, in data set [3], the inhibition at 40 µM stood at 98.28 ± 0.93%.
